The target in the test is T1, Ste2p (wild type, C-terminally truncated) (Saccharomyces cerevisiae, UniProt D6VTK4).
T1 sequence (D6VTK4 1-304): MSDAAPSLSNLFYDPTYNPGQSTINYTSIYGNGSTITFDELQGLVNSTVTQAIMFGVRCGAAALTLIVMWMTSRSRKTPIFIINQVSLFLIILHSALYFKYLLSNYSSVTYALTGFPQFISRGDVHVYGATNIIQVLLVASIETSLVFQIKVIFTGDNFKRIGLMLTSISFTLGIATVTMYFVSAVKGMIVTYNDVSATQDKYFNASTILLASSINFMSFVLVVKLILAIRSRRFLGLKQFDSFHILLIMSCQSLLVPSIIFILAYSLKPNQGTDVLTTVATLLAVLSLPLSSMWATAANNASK
The experiment in a line: Fluorescent ligand binding. Conditions: FL1/FL2 emission of the ligand labeled with NBD at Lys7, bound to normal Ste2p; normalised to [Lys^7(NBD),Nle^12]α-factor.

In the case of [des-Trp^1,Ala^3,Nle^12]α-factor, the “Relative Bmax Ratio” value is 0.49 ± 0.03.

As to [desTrp^1,desHis^2,Nle^12]α-factor, the “Relative Bmax Ratio” value was found to be 0.42 ± 0.05.

For the origin of these results see paper PMC3104124 (Journal of molecular biology, 2011).
